Laboratory results from US4886812A, “Tetrahydro-benzthiazoles, the preparation thereof and their use as intermediate products or as pharmaceuticals” (Dr. Karl Thomae GmbH, priority 1984, dated 1989).
Where a name gives a salt, the structure may show the parent alone.

How the values were obtained:
[1] = system: presynaptic dopamine receptors; assay: Inhibition of the exploratory activity of mice (infra-red light barrier cages); type: in vivo
Method: The activity was measured in observation cages fitted with an infra-red light barrier. […] Groups of 5 animals are given the test substance, unless otherwise specified, in a dosage of 10 mg/kg by subcutaneous injection. […] In parallel or alternately with groups treated with test substance, control groups treated with common salt are investigated (0.9% solution; 0.1 ml/10 g of body weight by subcutaneous route).

[2] = system: dopamine turnover; assay: Inhibition of dopamine turnover (AMPT-induced dopamine reduction in brain); type: in vivo, mice
Method: The inhibition of dopamine turnover was measured in mice. In animals treated with α-methylparatyrosine (AMPT) (250 mg/kg by intraperitoneal route) 15 minutes into the experiment, the dopamine concentration throughout the brain decreases as the test progresses. By administering substances which act on autoreceptors, the dopamine reduction (compared with control animals treated with common salt solution) can be prevented. Test substances are administered at time O of the experiment in a dosage of 5 mg/kg s.c., unless otherwise stated. Four hours and 15 minutes into the experiment the animals are killed and the brains are subjected to dopamine determination using high pressure liquid chromatography with electrochemical detection. This determines the percentage inhibition, caused by the test substance, of the dopamine reduction induced by AMPT.

[3] = system: dopamine synthesis; assay: Inhibition of dopamine synthesis (γ-butyrolactone-stimulated DOPA accumulation in corpus striatum); type: in vivo
Method: For this purpose, 5 animals are given the test substance in a dosage of 10 mg/kg s.c., unless otherwise stated. […] In order to inhibit the decarboxylation of DOPA, 200 mg/kg of 3-hydroxybenzyl-hydrazinhydrochloride are administered by intraperitoneal route after a further 5 minutes. Forty minutes after administration of the substance the animals are killed and the corpus striatum is prepared. The DOPA content is measured by HPLC with electrochemical detection (standard: dihydroxybenzylamine).
The percentage inhibition, produced by the test substance, of the DOPA accumulation stimulated by γ- butyrolactone compared with the controlled animals treated with 0.9% common salt solution is determined.

[4] = system: Rhesus monkeys (MPTP model for Parkinson's disease)
Description: The discovery of the neurotoxin 1-methyl-4-phenyl-1,2,3,6-tetrahydropyridine (MPTP) (Langston et al., Science 219, 979 (1983)) provided an animal model for Parkinson's disease.
The irreversible neurological syndrome triggered by MPTP in man and in monkeys largely resembles the idiopathic Parkinson's disease in its clinical, pathological, biochemical and pharmacological characteristics (Markey et al., Nature 311, 464 (1984)). The reason for this convincing similarity is the fact that MPTP selectively destroys the small group of dopaminergic nerve cells in the substantia nigra of the brain which are also destroyed by degenerative processes in naturally occurring Parkinson's disease.

[5] = 5 mg/kg s.c., AMPT 250 mg/kg i.p., brain dopamine at 4 hours 15 minutes
[6] = 10 mg/kg s.c., measurement of exploration 75 minutes after administration

Cl.Cl.Nc1nc2c(s1)CC(N1CCCC1)CC2 (stereo not shown) [Substance B, 2-amino-6-pyrrolidino-4,5,6,7-tetrahydrobenzthiazol-dihydrochloride]
Inhibition of activity in percent compared with controls treated with common salt ([1]; 10 mg/kg s.c., measured one hour after administration): 94%
% inhibition of AMPT effect [2, 5]: 67%

CN(C)C1CCc2nc(N)sc2C1.Cl.Cl (stereo not shown) [Substance A, 2-amino-6-dimethylamino-4,5,6,7-tetrahydrobenzthiazol-dihydrochloride]
Dosage giving 50 percent inhibition of activity (read off from the dosage/activity curve) ([1]; 50 percent inhibition, curve in the range 1-10 mg/kg s.c.): 2.7 mg/kg s.c.
Inhibition of activity in percent compared with controls treated with common salt ([1]; at 2.7 mg/kg s.c., read off from the dosage/activity curve (1-10 mg/kg s.c.)): 50%
ED50 ([2]; Mus musculus, sc, 50 % inhibition, curve in the range 0.5-3 mg/kg s.c., read-out: Dosage giving 50 % inhibition of AMPT effect (read off from the dosage/activity curve)): 0.95 mg/kg
% inhibition of AMPT effect ([2]; at 0.95 mg/kg s.c., read off from the dosage/activity curve (0.5-3 mg/kg s.c.)): 50%
Inhibition of DOPA accumulation in percent compared with controls treated with common salt ([3]; at 0.55 mg/kg s.c., read off from the dosage/activity curve (0.1-1.0 mg/kg s.c.)): 50%
ED50 ([3]; sc, 50 percent inhibition, curve in the range 0.1-1.0 mg/kg s.c., read-out: Dosage giving 50 percent inhibition of DOPA accumulation (read off from the dosage/activity curve)): 0.55 mg/kg

C=CCN(Cc1ccc(Cl)cc1)C1CCc2nc(N)sc2C1 (stereo not shown) [Substance E, 6-[N-ally-N-(4-chloro-benzyl)-amino]-2-amino-4,5,6,7-tetrahydro-benzthiazol-dihydrochloride]
Inhibition of activity in percent compared with controls treated with common salt [1, 6]: 56%
% inhibition of AMPT effect [2, 5]: 32%

C=CCN(CC=C)C1CCc2nc(N)sc2C1.Cl.Cl (stereo not shown) [Substance F, 2-amino-6-diallylamino-4,5,6,7-tetrahydrobenzthiazol-dihydrochloride]
Inhibition of activity in percent compared with controls treated with common salt [1, 6]: 60%

CCCNC1CCc2nc(N)sc2C1.Cl.Cl (stereo not shown) [Substance C, 2-amino-6-n-propylamino-4,5,6,7-tetrahydrobenzthiazol-dihydrochloride]
Inhibition of activity in percent compared with controls treated with common salt [1, 6]: 20%
Inhibition of DOPA accumulation in percent compared with controls treated with common salt ([3]; 10 mg/kg s.c., γ-butyrolactone 750 mg/kg i.p., 40 minutes after administration): 60%
Residual symptoms ([4]; 10-100 μg/kg intramuscular): an occasional transient and slight resting tremor and a reduction in rough strength
Sedation ([4]; 10-100 μg/kg intramuscular): no sedation
Circulation in the skin ([4]; 10-100 μg/kg intramuscular, compared with before administration): appeared to be greater than before
Effect of a fresh administration ([4]; after reversion to Parkinson symptoms): again leads to an improvement or substantial removal of the clinically pathological manifestations

C=CCNc1nc2c(s1)CC(N(C)C)CC2.Cl.Cl (stereo not shown) [Substance D, 2-allylamino-6-dimethylamino-4,5,6,7-tetrahydro-benzthiazol-dihydrochloride]
Inhibition of activity in percent compared with controls treated with common salt [1, 6]: 76%
% inhibition of AMPT effect [2, 5]: 52%
